Assay results reported in patent US4835253A, “Specific inhibitors of tissue kallikrein” (The University Hospital, priority 1987, dated 1989).
Values joined by “and” are separate entries in the source; they are usually repeats but may differ in a detail not shown here. Equal values may be shown once. Non-standard residues stand in square brackets, D forms with d. Residues, ends and D or L forms follow the SMILES beside them. *: point of attachment. Cha = N[C@@H](CC1CCCCC1)C(=O)O; dChg = N[C@@H](C(=O)O)C1CCCCC1; dPhg = N[C@@H](C(=O)O)c1ccccc1; pNA = O=[N+]([O-])c1ccc(N*)cc1; Chg = N[C@H](C(=O)O)C1CCCCC1

target: T1, Human urinary kallikrein (Homo sapiens, UniProt P06870); assay: KI determination: inhibition of HUK cleavage of chromogenic substrate S-2266; format: biochemical; conditions: HUK, substrate S-2266, pH 9.0, 37 C; read-out: KI
T1 construct: Human urinary kallikrein (hereinafter "HUK") was highly purified using a modification of published methods; from tissue; host or cells: human urine
Description: (§1) Human urinary kallikrein (hereinafter "HUK") was highly purified using a modification of published methods that employ ultrafiltration, aprotinin-CH-sepharose affinity chromatography, and Sephadex G-100 gel filtration [ole-MoiYoi et al., Proc. Natl. Acad. Sci. USA 76: 3121-3125 (1979)]. […] The pH of each fraction was determined immediately upon elution, and the fraction was neutralized by addition of 2.0 ml of 2M Tris-HCL buffer (pH 8.0).
KI Determinations: KI measurements were performed using a HP8450A diode array spectrophotometer (Hewlett Packard; Palo Alto, Calif.) attached to a Model 216 computer using the multi-component assay program modified to allow simultaneous determination of reaction velocity in four samples. Dixon plots were used to data reduction and for calculation of […]. […] Inhibition of biologically active kinin from LMW-kininogen was done at pH 7.7 and 37 C.
Procedurally, the KI values for the preliminary analogue inhibitors reported previously [Okunishi et al., Hypertension 7 (Suppl. I): I-72-I-75 (1985)] were determined by adding the chromogenic substrate S-2266 comprising D-Val-Leu-Arg-4-nitroaniline to a mixture of the analogue inhibitor and the HUK.
Initially, the inhibitor constant (KI) for each of these novel inhibitor compositions was determined using purified HUK and the tripeptide nitroanilide, S-2266. The ability to inhibit hydrolysis of the S-2266 substrate was performed in 50 mM tris-HCL buffer (pH 9.0) at 37 C. Subsequently, the ability of these novel inhibitors to inhibit human plasma kallikrein and bovine pancreatic trypsin were similarly examined using the specific substrates H-D-Pro-Phe-Arg-p-nitroanilide (S-2302) and Glu-Gly-Arg-p-nitroanilide (S-2444) respectively. The degradation products of each series was purified by HPLC and quantified by liquid scintillation counting as previously described.

T1 sequence (P06870 25-262): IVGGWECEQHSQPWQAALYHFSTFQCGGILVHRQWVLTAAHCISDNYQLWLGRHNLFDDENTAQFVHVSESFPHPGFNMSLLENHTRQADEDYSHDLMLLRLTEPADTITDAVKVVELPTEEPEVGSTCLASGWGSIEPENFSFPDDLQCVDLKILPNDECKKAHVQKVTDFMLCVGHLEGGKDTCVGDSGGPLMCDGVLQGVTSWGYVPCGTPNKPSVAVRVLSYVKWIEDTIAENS

| SMILES | Ki |
| --- | --- |
| CC(=O)N[C@@H](Cc1ccccc1)C(=O)N[C@@H](CCCN=C(N)N)C(=O)N[C@@H](CO)C(=O)N[C@H](C(=O)N[C@@H](CCC(N)=O)C(N)=O)C(C)C [KKI-4, Ac--Phe--Arg--Ser--Val--Gln--NH2, reference compound] (Ac-FRSVQ-NH2) | 35 µM |
| CC(=O)N1CCC[C@H]1C(=O)N[C@@H](Cc1ccccc1)C(=O)N[C@@H](CCCNC(=N)N)C(=O)N[C@@H](CO)C(=O)N[C@H](C(=O)N[C@@H](CCC(N)=O)C(N)=O)C(C)C [KKI-5, Ac--Pro--Phe--Arg--Ser--Val--Gln--NH2, reference compound] (Ac-PFRSVQ-NH2) | 156 µM and 136 µM |
| CC(=O)N[C@@H](CO)C(=O)N1CCC[C@H]1C(=O)N[C@@H](Cc1ccccc1)C(=O)N[C@@H](CCCNC(=N)N)C(=O)N[C@@H](CO)C(=O)N[C@H](C(=O)N[C@@H](CCC(N)=O)C(N)=O)C(C)C [KKI-6, Ac--Ser--Pro--Phe--Arg--Ser--Val--Gln--NH2, reference compound] (Ac-SPFRSVQ-NH2) | 73 µM |

target: T1, Human urinary kallikrein; assay: KM determination: hydrolysis of substrate analogues by HUK (HPLC, scintillation counting); format: biochemical; conditions: hydrolysis by HUK; kininogen = 1.0
Description: as §1
KM Determination: Hydrolysis of the substrate analogue inhibitors by HUK was measured by combining the test inhibitor at different concentrations on either side of the KM value with the enzyme at pH 9.0 for thirty minutes at 37 C. The cleavage products were separated from the starting material in the digest by HPLC on a Beckman octadecylsilane (ODS) column (1×25 cm) using a thirty minute gradient of from 0-70% CH3 CN in triethylammonium phosphate buffer (pH 7.0). The starting materials and reaction products were completely resolved under these conditions. Absorbance of the HPLC effluent was monitored at 220 nm. Individual fractions were collected and the amount of peptide degradation products was quantitated by counting in a liquid scintillation counter. Samples containing individual inhibitors were incubated without HUK and solvent blanks were also chromatographed and analyzed in the same way.
For test purposes, in these HUA cleavage studies, individual peptide sequences were synthesized, purified, and characterized as previously described herein. For these cleavage studies, doubly labelled peptides were prepared using [^3 H]-valine and […] respectively. In addition, 6.0N HCL-dioxane was used for removal of tert-butoxycarbonyl protecting groups and 90% hydrogen fluoride/10% anisole (volume/volume) for global deprotection on completion of the synthesis. After extraction and gel filtration on Sephadex G-15, final purification was completed by isocratic elution from a synchrom RP-P column (2.1×25 cm) with CH3 CN--H2 O (8 ml/min). The resultant peptides were deemed to be homogeneous by amino acid analysis; high performance liquid chromatography; thin layer chromatography; and A230 /A260 ratio analysis. […]

| SMILES | RELATIVE SPECIFICITY |
| --- | --- |
| CC(=O)N[C@@H](Cc1ccccc1)C(=O)N[C@@H](CCCNC(=N)N)C(=O)N[C@@H](CO)C(=O)N[C@H](C(=O)N[C@@H](CCC(N)=O)C(N)=O)C(C)C [KKI-4, Ac--Phe--Arg--Ser--Val--Gln--NH2, reference compound] (Ac-FRSVQ-NH2) | 4.2 |
| CC(=O)N1CCC[C@H]1C(=O)N[C@@H](Cc1ccccc1)C(=O)N[C@@H](CCCNC(=N)N)C(=O)N[C@@H](CO)C(=O)N[C@H](C(=O)N[C@@H](CCC(N)=O)C(N)=O)C(C)C [KKI-5, Ac--Pro--Phe--Arg--Ser--Val--Gln--NH2, reference compound] (Ac-PFRSVQ-NH2) | 3.2 |
| CC(=O)N[C@@H](CO)C(=O)N1CCC[C@H]1C(=O)N[C@@H](Cc1ccccc1)C(=O)N[C@@H](CCCNC(=N)N)C(=O)N[C@@H](CO)C(=O)N[C@H](C(=O)N[C@@H](CCC(N)=O)C(N)=O)C(C)C [KKI-6, Ac--Ser--Pro--Phe--Arg--Ser--Val--Gln--NH2, reference compound] (Ac-SPFRSVQ-NH2) | 45.4 |

target: T1, Human urinary kallikrein; assay: IC50 of tripeptide 4-nitroanilides against HUK cleavage of S-2266; format: biochemical; conditions: S-2266, 4.0 ng HUK, 37 C, pH 9.0
From the text: An evaluation of other possible peptide sequences and their potential effect as substrate analogue inhibitors specifically of tissue kallikrein was undertaken using chromogenic substrates comprising alternate series of tripeptide 4-nitroanilides using previously described methods [Amundsen et al., "Methods For The Determination Of Glandular Kallikrein By Means Of A Chromogenic Tripeptide Substrate," in Kinins-II. Part A. Plenum Press, 1979, pages 83-95]. This methodology relies on the capacity of HUK to cleave p-nitroaniline from specifically synthesized tripeptide 4-nitroanilines. Controls for this experimental series included S-2266 comprising D-Val-Leu-Arg-4NA; S-2444 comprising D-Glu-Gly-Arg-4NA; and S-2302 comprising D-Pro-Phe-Arg-4NA respectively. The 50% inhibitory concentration (IC50) values for each synthesized tripeptide 4-nitroanilide was determined at 37 C. at pH 9.0 using the specific kallikrein substrates S-2266 (Kabi, Helena Laboratories, Beaumont, Tex.). 4.0 nanograms (hereinafter "ng") of HUK were used in each sample. Blanks lacking S-2266 were run in parallel to correct for hydrolysis of all samples. In all cases, the amount of 4-nitroaniline generated from each tripeptide was less than 10% of that observed for the hydrolysis of S-2266.

| SMILES | IC50 [µM] |
| --- | --- |
| N=C(N)NCCC[C@H](NC(=O)[C@H](CC1CCCCC1)NC(=O)[C@H](N)c1ccccc1)C(=O)Nc1ccc([N+](=O)[O-])cc1 [D-0Gly--Cha--Arg--4NA] (H-[dPhg]-[Cha]-Arg-pNA) | 7.4 |
| NCCCC[C@H](NC(=O)[C@H](CC1CCCCC1)NC(=O)[C@H](N)c1ccccc1)C(=O)Nc1ccc([N+](=O)[O-])cc1 [D-0Gly--Cha--Lys--4NA] (H-[dPhg]-[Cha]-Lys-pNA) | > 200 |
| NCCCC[C@H](NC(=O)[C@H](CC1CCCCC1)NC(=O)[C@H](N)C1CCCCC1)C(=O)Nc1ccc([N+](=O)[O-])cc1 [D-Chg--Cha--Lys--4NA] (H-[dChg]-[Cha]-Lys-pNA) | 150 |
| N=C(N)NCCC[C@H](NC(=O)[C@H](Cc1ccccc1)NC(=O)[C@H](N)C1CCCCC1)C(=O)Nc1ccc([N+](=O)[O-])cc1 [D-Chg--Phe--Arg--4NA] (H-[dChg]-Phe-Arg-pNA) | 3.7 |
| N=C(N)NCCC[C@H](NC(=O)[C@H](CC1CCCCC1)NC(=O)[C@@H](N)C1CCCCC1)C(=O)Nc1ccc([N+](=O)[O-])cc1 [L-Chg--Cha--Arg--4NA] (H-[Chg]-[Cha]-Arg-pNA) | 11.5 |
| CC(C)C[C@H](NC(=O)[C@@H](N)C1CCCCC1)C(=O)N[C@@H](CCCNC(=N)N)C(=O)Nc1ccc([N+](=O)[O-])cc1 [L-Chg--Leu--Arg--4NA] (H-[Chg]-Leu-Arg-pNA) | 18.7 |
| CC[C@H](C)[C@H](N)C(=O)N[C@@H](CC1CCCCC1)C(=O)N[C@@H](CCCNC(=N)N)C(=O)Nc1ccc([N+](=O)[O-])cc1 [L-Ile--Cha--Arg--4NA] (H-Ile-[Cha]-Arg-pNA) | 10.5 |
